Data on two compounds can be found in paper PMC9569529, “Safe and Efficient Sigma1 Ligand: A Potential Drug Candidate for Multiple Sclerosis” (International Journal of Molecular Sciences, 2022).

The IC50 is the concentration that inhibits the measured activity by half. As a reminder, the inhibition is the change of the read-out against control, counted positive when it falls.

In one data set the target is T1, hERG (Homo sapiens, UniProt Q12809).
T1 construct: host or cells: CHO (hERG-CHO overexpressing cells)
T1 sequence (Q12809 whole entry): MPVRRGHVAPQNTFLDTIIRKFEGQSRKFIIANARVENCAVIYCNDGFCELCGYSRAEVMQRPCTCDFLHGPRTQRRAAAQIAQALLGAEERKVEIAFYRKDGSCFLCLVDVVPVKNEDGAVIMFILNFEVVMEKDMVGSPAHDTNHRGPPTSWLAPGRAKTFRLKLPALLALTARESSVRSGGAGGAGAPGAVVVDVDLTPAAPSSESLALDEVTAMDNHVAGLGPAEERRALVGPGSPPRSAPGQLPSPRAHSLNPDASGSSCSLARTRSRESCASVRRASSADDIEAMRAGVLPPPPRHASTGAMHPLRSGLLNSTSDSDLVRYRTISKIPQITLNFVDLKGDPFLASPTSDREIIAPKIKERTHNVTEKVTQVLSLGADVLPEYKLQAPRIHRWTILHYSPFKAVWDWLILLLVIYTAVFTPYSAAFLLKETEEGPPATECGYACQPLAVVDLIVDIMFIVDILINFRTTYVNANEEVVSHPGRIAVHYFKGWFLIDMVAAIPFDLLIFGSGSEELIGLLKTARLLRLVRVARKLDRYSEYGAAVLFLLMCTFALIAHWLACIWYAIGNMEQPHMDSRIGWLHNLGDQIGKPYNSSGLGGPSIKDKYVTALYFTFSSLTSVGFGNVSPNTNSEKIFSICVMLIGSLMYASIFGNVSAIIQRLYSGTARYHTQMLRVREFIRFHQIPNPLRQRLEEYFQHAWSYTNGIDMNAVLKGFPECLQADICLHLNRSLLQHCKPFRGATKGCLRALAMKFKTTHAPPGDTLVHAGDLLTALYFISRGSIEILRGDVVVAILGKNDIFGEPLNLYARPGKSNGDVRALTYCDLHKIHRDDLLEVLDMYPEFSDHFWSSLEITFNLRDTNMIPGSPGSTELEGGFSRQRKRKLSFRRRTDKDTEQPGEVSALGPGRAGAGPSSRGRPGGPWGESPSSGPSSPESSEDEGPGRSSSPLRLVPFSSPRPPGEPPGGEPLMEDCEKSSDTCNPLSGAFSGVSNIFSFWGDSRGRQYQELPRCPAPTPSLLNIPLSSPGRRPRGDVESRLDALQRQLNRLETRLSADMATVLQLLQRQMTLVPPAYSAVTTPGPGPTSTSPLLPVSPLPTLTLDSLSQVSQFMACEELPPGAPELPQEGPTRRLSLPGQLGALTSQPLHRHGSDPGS
As to the kind of experiment: hERG automated patch-clamp in hERG-CHO cells. The data set is classed as cell-based. As to the method: Cardiotoxicity analysis was performed by Eurofins Cerep (Poitiers, France) according to [73]. hERG-CHO overexpressing cells were used to perform automated patch-clamping. Compound 7i was evaluated at 0.1, 1 and 10 µM. Activities were expressed as % inhibition of tail current.
Background: Block of hERG is tested as a sign of cardiac risk.

The subject of the next data set is CYP3A. As to the kind of experiment: CYP inhibition in human liver microsomes. The settings on record: read-out: CYPs inhibition CYP3A. In kind it is in vitro ADME. As to the method:
(§1) The compound was classically evaluated at 10 µM for all the ADME analyses. Bidirectional permeability (apical A to basolateral B pH 6.5/7.4 and basolateral B to apical A pH 7.4/6.5) was assessed in the epithelial colorectal adenocarcinoma cell line (Caco-2 cell line). Results were expressed as × 10^−6cm/s (Papp) and as % recovery. Efflux ratio, i.e., Papp(B-A)/Papp(A-B), was calculated. Plasma protein binding was analyzed by HPLC-MS/MS after 4-h incubation at 37 °C, as described by Banker et al.. Concentration was evaluated by LC/MS-MS. CYP inhibition was performed in human liver microsomes as described in [61]. Analysis of the respective metabolites. was performed by HPLC-MS/MS. Transporter inhibition analysis was also performed in overexpressing cell lines. Respective metabolites for each specific transporter substrate were analyzed by fluorometry or scintillation counting and % inhibition of control values were calculated. P-glycoprotein transporter substrate assessment was performed by bidirectional permeability analysis (apical A to basolateral B pH 7.4/7.4 and basolateral B to apical A pH 7.4/7.4) in the Caco-2 cell line with and without verapamil, as described in [59]. Results were expressed as ×10^−6 cm/s (Papp) and as % recovery. The efflux ratio, i.e., Papp(B-A)/Papp(A-B), was calculated. CYP450 induction characterization was performed on human hepatocytes. The mRNA levels of 7 different CYPs were analyzed by qPCR, as described in [72]. The compound was evaluated at 1, 10 and 100 µM. Fold-induction values were determined and compared to cut-off values, as defined for each CYP isozyme in each hepatocyte lot.

A further data set has as its target T2, CYP2C9 (Homo sapiens, UniProt P11712).
T2 construct: tissue Eurofins Cerep (CRO); host or cells: human liver microsomes
The experiment in a line: CYP inhibition in human liver microsomes. In kind it is in vitro ADME. The settings on record: read-out: CYPs inhibition CYP2C9. As to the method: as §1
(Liver microsomes are a subcellular fraction often used to study metabolism.)

Another data set addresses T3, CYP1A (Homo sapiens, UniProt P05177).
T3 construct: tissue Eurofins Cerep (CRO); host or cells: human liver microsomes
As to the kind of experiment: CYP inhibition in human liver microsomes. Conditions: read-out: CYPs inhibition CYP1A. The data set is classed as in vitro ADME. As to the method: as §1

The target of another data set is T4, CYP2B6 (Homo sapiens, UniProt P20813).
T4 construct: tissue Eurofins Cerep (CRO); host or cells: human liver microsomes
T4 sequence (P20813 whole entry): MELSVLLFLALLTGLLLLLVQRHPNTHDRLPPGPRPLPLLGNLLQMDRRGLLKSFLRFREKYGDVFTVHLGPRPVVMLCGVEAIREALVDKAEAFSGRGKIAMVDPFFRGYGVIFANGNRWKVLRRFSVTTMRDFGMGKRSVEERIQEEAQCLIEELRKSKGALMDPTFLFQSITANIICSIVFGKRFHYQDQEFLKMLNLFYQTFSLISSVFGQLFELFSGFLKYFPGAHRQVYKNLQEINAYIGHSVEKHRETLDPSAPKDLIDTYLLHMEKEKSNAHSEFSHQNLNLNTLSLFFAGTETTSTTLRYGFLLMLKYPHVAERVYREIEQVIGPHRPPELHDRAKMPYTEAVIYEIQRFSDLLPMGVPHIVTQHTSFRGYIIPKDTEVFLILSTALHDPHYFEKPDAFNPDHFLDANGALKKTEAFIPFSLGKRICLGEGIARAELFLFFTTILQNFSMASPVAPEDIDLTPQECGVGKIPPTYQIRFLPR
The experiment in a line: CYP inhibition in human liver microsomes. In kind it is in vitro ADME. Conditions: read-out: CYPs inhibition CYP2B6. As to the method:
as §1

The next data set deals with T5, CYP2D6 (Homo sapiens, UniProt P10635).
T5 construct: tissue Eurofins Cerep (CRO); host or cells: human liver microsomes
The experiment in a line: CYP inhibition in human liver microsomes. The data set is classed as in vitro ADME. Conditions: read-out: CYPs inhibition CYP2D6. As to the method:
as §1

Another data set addresses T6, CYP2C19 (Homo sapiens, UniProt P33261).
T6 construct: tissue Eurofins Cerep (CRO); host or cells: human liver microsomes
The experiment in a line: CYP inhibition in human liver microsomes. The data set is classed as in vitro ADME. The settings on record: read-out: CYPs inhibition CYP2C19. As to the method:
as §1

For a further data set, the target named is T7, CYP2C8 (Homo sapiens, UniProt P10632).
T7 construct: tissue Eurofins Cerep (CRO); host or cells: human liver microsomes
The experiment in a line: CYP inhibition in human liver microsomes. In kind it is in vitro ADME. Conditions: read-out: CYPs inhibition CYP2C8. As to the method:
as §1

The target of the next data set is OAT1 (Homo sapiens, UniProt Q4U2R8). The experiment in a line: Drug transporter inhibition (SLC family). The data set is classed as in vitro ADME. The settings on record: transporter-overexpressing cell lines, read-out: Drug transporters inhibition OAT1. As to the method: as §1
The next data set deals with ABST (Homo sapiens, UniProt Q12908). The experiment in a line: Drug transporter inhibition (SLC family). In kind it is in vitro ADME. The settings on record: read-out: Drug transporters inhibition ABST. As to the method:
as §1

For a further data set, the target named is OCT1 (Homo sapiens, UniProt O15245). As to the kind of experiment: Drug transporter inhibition (SLC family). The settings on record: transporter-overexpressing cell lines, read-out: Drug transporters inhibition OCT1. The data set is classed as in vitro ADME. As to the method:
as §1

Another data set concerns the target OATP1B1 (Homo sapiens, UniProt Q9Y6L6). As to the kind of experiment: Drug transporter inhibition (SLC family). The data set is classed as in vitro ADME. Conditions: transporter-overexpressing cell lines, read-out: Drug transporters inhibition OATP1B1. As to the method:
as §1

The target of a further data set is NTCP (Homo sapiens, UniProt Q14973). As to the kind of experiment: Drug transporter inhibition (SLC family). The data set is classed as in vitro ADME. Conditions: read-out: Drug transporters inhibition NTCP. As to the method: as §1
NTCP, sequence (Q14973 whole entry): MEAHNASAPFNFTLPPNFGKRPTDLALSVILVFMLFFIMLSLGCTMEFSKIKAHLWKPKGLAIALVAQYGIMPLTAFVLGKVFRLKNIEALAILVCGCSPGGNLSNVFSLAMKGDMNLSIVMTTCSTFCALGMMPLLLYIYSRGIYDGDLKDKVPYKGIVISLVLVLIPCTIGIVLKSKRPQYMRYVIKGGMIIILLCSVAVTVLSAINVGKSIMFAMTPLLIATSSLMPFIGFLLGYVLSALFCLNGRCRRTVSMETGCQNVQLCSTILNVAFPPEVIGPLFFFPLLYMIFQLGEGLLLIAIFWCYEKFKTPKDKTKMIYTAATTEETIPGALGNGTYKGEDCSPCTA
The target of a further data set is OCT2 (Homo sapiens, UniProt O15244). As to the kind of experiment: Drug transporter inhibition (SLC family). In kind it is in vitro ADME. The settings on record: transporter-overexpressing cell lines, read-out: Drug transporters inhibition OCT2. As to the method:
as §1

A further data set addresses OAT3 (Homo sapiens, UniProt Q8TCC7). The experiment in a line: Drug transporter inhibition (SLC family). The data set is classed as in vitro ADME. Conditions: transporter-overexpressing cell lines, read-out: Drug transporters inhibition OAT3. As to the method: as §1
For the next data set, the target named is OATP1B3 (Homo sapiens, UniProt Q9NPD5). As to the kind of experiment: Drug transporter inhibition (SLC family). In kind it is in vitro ADME. Conditions: transporter-overexpressing cell lines, read-out: Drug transporters inhibition OATP1B3. As to the method:
as §1

The structures appear in SMILES notation. Read-outs that look alike come from different tables or passages of the source.

OCT1, sequence (O15245 whole entry): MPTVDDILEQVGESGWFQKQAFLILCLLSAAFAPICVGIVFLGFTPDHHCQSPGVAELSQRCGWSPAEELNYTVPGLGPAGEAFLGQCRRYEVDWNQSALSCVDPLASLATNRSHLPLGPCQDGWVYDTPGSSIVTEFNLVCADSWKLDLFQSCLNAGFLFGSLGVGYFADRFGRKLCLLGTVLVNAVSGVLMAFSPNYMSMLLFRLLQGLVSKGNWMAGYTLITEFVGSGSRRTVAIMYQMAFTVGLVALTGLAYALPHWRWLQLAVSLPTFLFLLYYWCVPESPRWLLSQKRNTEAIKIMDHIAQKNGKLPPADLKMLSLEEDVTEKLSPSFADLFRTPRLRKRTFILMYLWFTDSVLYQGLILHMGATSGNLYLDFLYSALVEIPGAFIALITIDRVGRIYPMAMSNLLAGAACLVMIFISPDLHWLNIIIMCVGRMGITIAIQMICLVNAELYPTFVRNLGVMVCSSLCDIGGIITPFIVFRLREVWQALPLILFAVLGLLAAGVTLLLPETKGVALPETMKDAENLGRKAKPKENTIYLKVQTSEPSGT
OATP1B1, sequence (Q9Y6L6 whole entry): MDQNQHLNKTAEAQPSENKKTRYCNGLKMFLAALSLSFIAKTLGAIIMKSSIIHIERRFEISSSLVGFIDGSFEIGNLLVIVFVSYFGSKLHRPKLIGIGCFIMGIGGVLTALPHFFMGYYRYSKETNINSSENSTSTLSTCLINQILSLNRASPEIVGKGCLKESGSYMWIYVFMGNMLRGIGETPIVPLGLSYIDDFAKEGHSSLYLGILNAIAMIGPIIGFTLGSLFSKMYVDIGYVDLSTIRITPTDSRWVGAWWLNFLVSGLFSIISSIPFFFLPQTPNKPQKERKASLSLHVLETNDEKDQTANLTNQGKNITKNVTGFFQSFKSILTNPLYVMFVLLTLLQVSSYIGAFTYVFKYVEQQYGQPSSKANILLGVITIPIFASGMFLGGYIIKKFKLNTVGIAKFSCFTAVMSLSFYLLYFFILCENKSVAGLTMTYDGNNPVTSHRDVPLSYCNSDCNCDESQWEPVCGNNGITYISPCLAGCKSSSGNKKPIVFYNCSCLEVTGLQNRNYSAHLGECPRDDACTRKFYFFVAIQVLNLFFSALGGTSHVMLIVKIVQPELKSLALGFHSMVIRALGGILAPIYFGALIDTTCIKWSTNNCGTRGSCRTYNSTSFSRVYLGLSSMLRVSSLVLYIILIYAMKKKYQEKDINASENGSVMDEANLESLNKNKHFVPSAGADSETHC
T3 sequence (P05177 2-516 limits assumed): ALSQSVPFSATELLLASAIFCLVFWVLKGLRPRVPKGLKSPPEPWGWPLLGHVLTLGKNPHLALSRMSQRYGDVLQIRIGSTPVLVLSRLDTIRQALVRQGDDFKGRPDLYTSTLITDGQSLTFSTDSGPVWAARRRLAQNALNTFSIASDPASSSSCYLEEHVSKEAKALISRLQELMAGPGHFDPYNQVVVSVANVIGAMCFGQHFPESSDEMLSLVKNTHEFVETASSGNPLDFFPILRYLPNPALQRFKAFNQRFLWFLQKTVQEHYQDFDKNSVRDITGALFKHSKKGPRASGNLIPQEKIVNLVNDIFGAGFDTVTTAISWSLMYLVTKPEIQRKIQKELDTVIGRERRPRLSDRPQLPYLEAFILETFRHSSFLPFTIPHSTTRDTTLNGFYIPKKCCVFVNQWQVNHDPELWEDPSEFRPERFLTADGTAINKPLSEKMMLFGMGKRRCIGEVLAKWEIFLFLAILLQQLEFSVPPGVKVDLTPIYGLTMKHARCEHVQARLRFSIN
OCT2, sequence (O15244 whole entry): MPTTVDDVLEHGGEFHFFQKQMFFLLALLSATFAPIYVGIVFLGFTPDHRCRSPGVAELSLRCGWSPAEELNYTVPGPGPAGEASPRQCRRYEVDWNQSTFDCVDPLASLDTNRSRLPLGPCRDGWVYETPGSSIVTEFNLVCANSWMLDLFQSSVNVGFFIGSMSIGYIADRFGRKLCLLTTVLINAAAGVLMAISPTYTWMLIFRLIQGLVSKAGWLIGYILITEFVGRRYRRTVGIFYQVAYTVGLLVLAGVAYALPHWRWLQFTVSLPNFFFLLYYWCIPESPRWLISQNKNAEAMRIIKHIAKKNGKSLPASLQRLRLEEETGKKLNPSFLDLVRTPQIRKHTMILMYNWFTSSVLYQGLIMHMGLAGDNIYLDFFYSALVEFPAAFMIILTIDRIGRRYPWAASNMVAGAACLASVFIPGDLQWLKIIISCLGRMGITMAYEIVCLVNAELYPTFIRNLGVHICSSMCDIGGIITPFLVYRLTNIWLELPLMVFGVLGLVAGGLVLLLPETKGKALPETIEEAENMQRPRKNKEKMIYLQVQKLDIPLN
ABST, sequence (Q12908 whole entry): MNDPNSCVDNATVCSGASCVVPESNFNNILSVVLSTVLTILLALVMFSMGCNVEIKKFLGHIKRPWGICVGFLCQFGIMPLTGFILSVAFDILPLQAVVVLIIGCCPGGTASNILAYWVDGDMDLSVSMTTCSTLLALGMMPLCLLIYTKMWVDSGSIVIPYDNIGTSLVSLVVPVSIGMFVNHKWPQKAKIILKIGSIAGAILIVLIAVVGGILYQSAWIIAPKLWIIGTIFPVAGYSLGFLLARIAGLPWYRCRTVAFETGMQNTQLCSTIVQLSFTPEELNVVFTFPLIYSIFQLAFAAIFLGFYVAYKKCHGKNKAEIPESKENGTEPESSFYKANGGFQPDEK

As to `O=C(NCCCNCc1ccccc1)c1ccc(Cl)cc1` [compound 7i-deMe], the IC50 on hERG (read-out: hERG IC50) came out at 1.2 µM. Moreover, the inhibition at 10 µM in the data set on CYP3A was 3.2%; on CYP2C9, 5.9%; on CYP1A it was 9.4%; at CYP2B6, 15.9%; on CYP2D6 it was 91.6%; on CYP2C19 it was 18.4%. The inhibition at 10 µM on CYP2C8 was -7.2%; at OAT1, -6.2%; on ABST it was 5%; at OCT1, 64.6%; at OATP1B1, 8.6%; on NTCP, 8.7%. For the same compound, the inhibition at 10 µM worked out at 85.8% on OCT2, 18.7% on OAT3 and 19.1% at OATP1B3.
On to `CN(CCCNC(=O)c1ccc(Cl)cc1)Cc1ccccc1` [compound 7i], for which, on hERG (Table 4, read-out: hERG inhibition IC50), the IC50 stood at 1 µM. Also, the inhibition at 10 µM in the data set on CYP3A is 36.9%; on CYP2C9 it was -7.2%; on CYP1A, 2.1%; on CYP2B6, -4.3%; at CYP2D6, 95.1%; at CYP2C19, 36.5%. In addition, the inhibition at 10 µM at CYP2C8 was -9.2%; at OAT1 it was -9.6%; at ABST it was 5.3%; at OCT1, 41.2%; on OATP1B1 it was 12%; on NTCP, -1.7%. Moreover, the results for the inhibition at 10 µM on OCT2, at OAT3 and at OATP1B3 were 49.4%, 34.3% and 23.1%, respectively.
